Tests used:
[1] = molecular target: T1, endogenous fungal MIPS (myo-inositol-1-phosphate synthase) (Thermochaetoides thermophila, UniProt G0SDP4); experiment: phosphate release after periodate oxidation, molybdate, […] nm; format: biochemical; settings: SEC fraction of cell extract; 5 mM G6P, 0.8 mM NAD+, 14 mM ammonium acetate, 2 mM DTT, 100 mM Tris-acetate pH 8, 37 °C
T1 construct: gene CTHT_0052500; native full-length enzyme in SEC fraction of T. thermophila cell extract, no tag; 240 kDa homotetramer; residues 40-552 resolved
T1 sequence (G0SDP4 1-552): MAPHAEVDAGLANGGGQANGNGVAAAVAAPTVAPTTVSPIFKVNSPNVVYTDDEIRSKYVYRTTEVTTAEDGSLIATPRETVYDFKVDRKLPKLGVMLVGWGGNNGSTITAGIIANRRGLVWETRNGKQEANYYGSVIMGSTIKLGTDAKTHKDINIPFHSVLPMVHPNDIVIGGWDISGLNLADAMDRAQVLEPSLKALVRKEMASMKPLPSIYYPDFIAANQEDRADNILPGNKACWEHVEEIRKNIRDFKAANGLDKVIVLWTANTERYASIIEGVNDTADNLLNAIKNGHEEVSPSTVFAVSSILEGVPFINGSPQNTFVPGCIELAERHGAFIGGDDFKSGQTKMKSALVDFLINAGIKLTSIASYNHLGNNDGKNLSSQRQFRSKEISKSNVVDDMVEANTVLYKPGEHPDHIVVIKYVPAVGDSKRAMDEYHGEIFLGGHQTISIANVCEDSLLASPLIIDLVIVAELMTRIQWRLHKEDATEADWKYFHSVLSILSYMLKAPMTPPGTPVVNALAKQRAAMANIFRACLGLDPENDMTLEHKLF

[2] = molecular target: T1, endogenous fungal MIPS (myo-inositol-1-phosphate synthase); experiment: cryo-EM structure ([…] Å); format: binding; settings: endogenously bound in all four active sites; native SEC fraction, pH 7.4; monovalent cation (probably K+) near NAD

Structure (SMILES) | phosphate release after periodate oxidation, molybdate, 820 nm [1] | cryo-EM structure (2.48 Å) [2]
O=P(O)(O)OC[C@H]1OC(O)[C@H](O)[C@@H](O)[C@@H]1O (some centres unmarked) [glucose-6-phosphate] | probe the identified fractions for their capacity to convert G6P to IMP | 
NC(=O)c1ccc[n+]([C@@H]2O[C@H](COP(=O)(O)OP(=O)(O)OC[C@H]3O[C@@H](n4cnc5c(N)ncnc54)[C@H](O)[C@@H]3O)[C@@H](O)[C@H]2O)c1 [NAD^+] |  | allowing for the unambiguous placement of the cofactor NAD (Fig. 2A)
